Publication PMC5312080 (mBio, 2017)
In brackets after ≈: the same amount, converted by molar mass.

How the values were obtained:
M. tuberculosis H37Rv [1] = test: Microdilution alamarBlue assay (MABA) MIC; type: cell-based; settings: Mycobacterium tuberculosis
in vitro = settings: African green monkey
M. tuberculosis H37Rv [2] = test: Checkerboard alamarBlue compound interaction assay; type: cell-based, Mycobacterium tuberculosis; settings: for FIC: FIC of the anti-TB drug in combination with DG70; for MIC: Mycobacterium tuberculosis, H37RV, drug alone, checkerboard; for MIC In combination: anti-TB drug in combination with DG70; for FIC category / FIC index (∑FIC): combination of the named drug with DG70
BCG = type: cell-based, Mycobacterium bovis BCG
ATP synthesis in BCG = type: cell-based, Mycobacterium bovis BCG
[3] = test system: mycobacterial oxygen consumption; test: Oxygen consumption, methylene blue decolorization; type: cell-based
[4] = Table S2, parent H37Rv, read-out: MIC in Mtb H37Rv
[5] = whole-cell activity versus M. tuberculosis, […], read-out: MIC

Row | SMILES | MIC (M. tuberculosis H37Rv [1]; [4]) [µg/mL] | MIC (M. tuberculosis H37Rv [1]; [5]) [µg/mL] | CC50 (in vitro) [µg/mL] | FIC (M. tuberculosis H37Rv [2]) | MIC (M. tuberculosis H37Rv [2]) [µM] | MIC In combination (M. tuberculosis H37Rv [2]) [µM] | FIC category (M. tuberculosis H37Rv [2]) | FIC index (∑FIC) (M. tuberculosis H37Rv [2]) | further results
1 | COc1ccc(-c2cc(NC(=O)c3ccccc3)ccc2OC)cc1 [JSF-2912] | 9.6 (≈ 28.8 µM) | 9.6 (≈ 28.8 µM) | > 80 |  |  |  |  |  | 
2 | COc1ccc(NC(=O)c2ccc(F)cc2Cl)cc1 [JSF-2926] | 9.6 (≈ 34.3 µM) | 9.6 (≈ 34.3 µM) | > 70 |  |  |  |  |  | 
3 | COc1ccc(-c2cc(N(C)C(=O)c3ccc(F)cc3Cl)ccc2OC)cc1 [JSF-2949] | 39.5 (≈ 98.8 µM) | 39 (≈ 97.5 µM) | 24 (≈ 60 µM) |  |  |  |  |  | 
4 | O=C(Nc1ccc(O)c(-c2ccc(O)cc2)c1)c1ccc(F)cc1Cl [JSF-2950] | 39.5 (≈ 110 µM) | 39 (≈ 109 µM) | 50 (≈ 140 µM) |  |  |  |  |  | 
5 | COc1ccc(-c2cc(NCc3ccc(F)cc3Cl)ccc2OC)cc1 [JSF-2951] | 77 (≈ 207 µM) | 77 (≈ 207 µM) | > 50 |  |  |  |  |  | 
6 | COc1ccc(NC(=O)c2ccc(F)cc2Cl)cc1-c1ccccc1 [JSF-2971] | 9.6 (≈ 27 µM) | 9.6 (≈ 27 µM) | > 50 |  |  |  |  |  | 
7 | O=[N+]([O-])c1cn2c(n1)OC[C@@H](OCc1ccc(OC(F)(F)F)cc1)C2 [PA824] |  |  |  | 1.0 | 0.1 | 0.1 | additive (>0.5 to ≤1, additive) | 1.0 | regrowth after (BCG): 10 days; time of treatment to sterile cultures (no CFU detected) (BCG): 10 days
8 | CO[C@H]1/C=C/O[C@@]2(C)Oc3c(C)c(O)c4c(O)c(c(/C=N/N5CCN(C)CC5)c(O)c4c3C2=O)NC(=O)/C(C)=C\C=C\[C@H](C)[C@H](O)[C@@H](C)[C@@H](O)[C@@H](C)[C@H](OC(C)=O)[C@@H]1C [RIF, rifampin] |  |  |  | 0.25 | 0.02 | 0.005 | synergistic (≤0.5, synergistic) | 0.5 | 
9 | CSc1ccc2c(c1)N(CCC1CCCCN1C)c1ccccc1S2 (stereo not shown) [THZ, thioridazine] |  |  |  | 0.5 | 6.25 | 3.12 | additive (>0.5 to ≤1, additive) | 0.7 | effect of MK4 supplementation on inhibition of ATP synthesis (ATP synthesis in BCG): failed to reverse; effect of MK4 supplementation on inhibition of oxygen consumption [3]: failed to reverse
